Key:
Serine protease 1 = Serine protease 1 (Homo sapiens, UniProt P07477); assay: In vitro inhibitory activity against trypsin
Oryctolagus cuniculus [1] = assay: Antithrombotic effect (Inhibition of thrombus formation) in a rabbit deep vein thrombosis model at 1.1 uM plasma concentration following iv administration; type: functional
[2] = Oral bioavailability in rat; type: ADME, organism-based; details: in vivo
Coagulation factor X = Coagulation factor X (Homo sapiens, UniProt P00742); assay: In vitro inhibitory activity against coagulation factor X
Prothrombin = Prothrombin (Homo sapiens, UniProt P00734); assay: In vitro inhibitory activity against thrombin
Oryctolagus cuniculus [3] = assay: Antithrombotic effect (Inhibition of thrombus formation) in a rabbit deep vein thrombosis model at 0.132 uM plasma concentration following iv administration; type: functional

Chain of Coagulation factor X (P00742 41-179 limits assumed): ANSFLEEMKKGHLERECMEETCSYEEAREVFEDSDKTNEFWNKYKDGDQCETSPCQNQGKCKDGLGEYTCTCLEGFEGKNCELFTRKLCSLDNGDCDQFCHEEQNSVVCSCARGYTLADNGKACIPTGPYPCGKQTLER
Chain of Coagulation factor X (P00742 235-488 limits assumed): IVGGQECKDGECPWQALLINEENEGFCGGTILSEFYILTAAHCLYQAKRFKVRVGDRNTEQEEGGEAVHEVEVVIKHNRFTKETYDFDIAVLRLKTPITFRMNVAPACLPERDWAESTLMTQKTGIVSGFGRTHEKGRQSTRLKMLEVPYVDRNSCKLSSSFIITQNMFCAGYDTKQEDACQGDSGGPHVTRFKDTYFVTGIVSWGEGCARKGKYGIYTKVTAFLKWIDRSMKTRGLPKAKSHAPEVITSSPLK
Chain of Serine protease 1 (P07477 whole entry): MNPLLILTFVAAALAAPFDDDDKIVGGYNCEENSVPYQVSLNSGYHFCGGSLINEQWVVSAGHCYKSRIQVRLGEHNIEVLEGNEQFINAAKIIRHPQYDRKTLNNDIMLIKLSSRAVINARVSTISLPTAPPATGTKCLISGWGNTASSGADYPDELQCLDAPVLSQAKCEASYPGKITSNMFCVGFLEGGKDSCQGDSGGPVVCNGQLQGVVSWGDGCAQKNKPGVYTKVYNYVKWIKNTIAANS

| Structure (SMILES) | IC50 (Serine protease 1) [µM] | Inhibition (Oryctolagus cuniculus [1]) [%] | bioavailability [2] [%] | IC50 (Coagulation factor X) [µM] | IC50 (Prothrombin) [µM] | Inhibition (Oryctolagus cuniculus [3]) [%] |
| --- | --- | --- | --- | --- | --- | --- |
| N=C(N)c1cccc(OC(C(=O)Nc2ccc(C(=O)N3CCCC3)cc2)c2ccccc2)c1 (centres undefined) | 0.174 | 81 | 5 | 0.00018 |  |  |
| N=C(N)c1cccc(OC(C(=O)Nc2ccc(-c3ccccc3S(N)(=O)=O)cc2F)c2ccccc2)c1 (centres undefined) | 9.82 |  |  |  | > 10 |  |
| N=C(N)c1ccc(O)c(OCC(=O)Nc2ccc(-c3ccccc3S(N)(=O)=O)cc2)c1 | 2.29 |  |  | 0.0022 | > 10 |  |
| N=C(N)c1cccc(OC(C(=O)Nc2ccc(-n3ccc(C(F)(F)F)n3)cc2)c2ccccc2)c1 (centres undefined) | > 10 |  |  | 0.17 | > 10 |  |
| N=C(N)c1cccc(OC(C(=O)Nc2ccc(-n3cnc(Cl)c3Cl)cc2)c2ccccc2)c1 (centres undefined) | 5.33 |  |  | 0.014 |  |  |
| N=C(N)c1cccc(OCCC(=O)Nc2ccc(-c3ccccc3S(N)(=O)=O)cc2)c1 | 2.57 |  |  | 0.0064 | > 10 |  |
| CN1CCN(C(=O)c2ccc(NC(=O)COc3cccc(C(=N)N)c3)cc2)CC1 | > 10 |  |  | > 10 | > 10 |  |
| N=C(N)c1cccc(OCC(=O)Nc2ccc(C(=O)N3CCOCC3)cc2)c1 | > 10 |  |  | 1.12 | > 10 |  |
| N=C(N)c1cccc(OC(C(=O)Nc2ccc(-c3ccccc3S(N)(=O)=O)cc2)c2ccccc2)c1 (centres undefined) | 1.25 |  | 5 | 0.00055 | > 10 | 56 |
| N=C(N)c1cccc(OCC(=O)Nc2ccc(C(=O)N3CCCCCC3)cc2)c1 | > 10 |  |  | 1.19 | > 10 |  |
| N=C(N)c1cccc(OCC(=O)Nc2ccc(C(=O)N3CCCC3)cc2)c1 | 2.7 |  |  | 0.066 | > 10 |  |
| N=C(N)c1cccc(OC(C(=O)Nc2cc(Cl)c(-n3cccc3)cc2Cl)c2ccccc2)c1 (centres undefined) | 8.78 |  |  | 0.093 | 4.09 |  |
| N=C(N)c1cccc(OC(C(=O)Nc2ccc(N3CCOCC3)c(F)c2)c2ccccc2)c1 (centres undefined) |  |  |  | 0.0044 |  |  |
| N=C(N)c1cccc(OCC(=O)Nc2ccc(C(=O)N3CCC3)cc2)c1 | 2.05 |  |  | 0.227 | > 10 |  |
| N=C(N)c1cccc(OC(C(=O)Nc2ccc(-c3ccccc3S(N)(=O)=O)cc2Br)c2ccccc2)c1 (centres undefined) | 4 |  |  | 0.0032 | 8.64 |  |
| N=C(N)c1cccc(OC(C(=O)Nc2ccc(C(=O)N3CCCC3)cc2Br)c2ccccc2)c1 (centres undefined) | 0.521 |  |  | 0.00099 | > 10 |  |
| N=C(N)c1cccc(OCC(=O)Nc2ccc(C(=O)N3CCCCC3)cc2)c1 | > 10 |  |  |  | > 10 |  |
| N=C(N)c1cccc(OCC(=O)Nc2ccc(C(=O)N3CCCC3C(=O)O)cc2)c1 (centres undefined) | > 10 |  |  | > 10 | > 10 |  |
| N=C(N)c1cccc(OCC(=O)Nc2ccc(-c3ccccc3S(N)(=O)=O)cc2)c1 | 3.37 |  |  | 0.021 | > 10 |  |
| CC(C)(C)OC(=O)C1CCCN1C(=O)c1ccc(NC(=O)COc2cccc(C(=N)N)c2)cc1 (centres undefined) | 6.64 |  |  | 2.93 | > 10 |  |
| N=C(N)c1cccc(OCC(=O)Nc2ccc(C(=O)N3CC=CC3)cc2)c1 | 0.875 |  |  | 0.0063 | > 10 |  |
| N=C(N)c1ccc(O)c(OCC(=O)Nc2ccc(C(=O)N3CCCC3)cc2)c1 | 0.283 |  |  | 0.0007 | > 10 |  |
